{"source": "patent EP2853565A1", "about": "“Glutamate receptor photomodulators” (Consejo Superior De Investigaciones Científicas, priority 2013, dated 2015)", "key": {"[1]": {"target": "T1, rat metabotropic glutamate receptor 5 (mGlu5) (Rattus norvegicus, UniProt P31424)", "T1 construct": "expressed in transfected cells; host or cells: HEK tsA201 cells", "T1 sequence (P31424 21-1171 isoform P31424-2 limits assumed)": "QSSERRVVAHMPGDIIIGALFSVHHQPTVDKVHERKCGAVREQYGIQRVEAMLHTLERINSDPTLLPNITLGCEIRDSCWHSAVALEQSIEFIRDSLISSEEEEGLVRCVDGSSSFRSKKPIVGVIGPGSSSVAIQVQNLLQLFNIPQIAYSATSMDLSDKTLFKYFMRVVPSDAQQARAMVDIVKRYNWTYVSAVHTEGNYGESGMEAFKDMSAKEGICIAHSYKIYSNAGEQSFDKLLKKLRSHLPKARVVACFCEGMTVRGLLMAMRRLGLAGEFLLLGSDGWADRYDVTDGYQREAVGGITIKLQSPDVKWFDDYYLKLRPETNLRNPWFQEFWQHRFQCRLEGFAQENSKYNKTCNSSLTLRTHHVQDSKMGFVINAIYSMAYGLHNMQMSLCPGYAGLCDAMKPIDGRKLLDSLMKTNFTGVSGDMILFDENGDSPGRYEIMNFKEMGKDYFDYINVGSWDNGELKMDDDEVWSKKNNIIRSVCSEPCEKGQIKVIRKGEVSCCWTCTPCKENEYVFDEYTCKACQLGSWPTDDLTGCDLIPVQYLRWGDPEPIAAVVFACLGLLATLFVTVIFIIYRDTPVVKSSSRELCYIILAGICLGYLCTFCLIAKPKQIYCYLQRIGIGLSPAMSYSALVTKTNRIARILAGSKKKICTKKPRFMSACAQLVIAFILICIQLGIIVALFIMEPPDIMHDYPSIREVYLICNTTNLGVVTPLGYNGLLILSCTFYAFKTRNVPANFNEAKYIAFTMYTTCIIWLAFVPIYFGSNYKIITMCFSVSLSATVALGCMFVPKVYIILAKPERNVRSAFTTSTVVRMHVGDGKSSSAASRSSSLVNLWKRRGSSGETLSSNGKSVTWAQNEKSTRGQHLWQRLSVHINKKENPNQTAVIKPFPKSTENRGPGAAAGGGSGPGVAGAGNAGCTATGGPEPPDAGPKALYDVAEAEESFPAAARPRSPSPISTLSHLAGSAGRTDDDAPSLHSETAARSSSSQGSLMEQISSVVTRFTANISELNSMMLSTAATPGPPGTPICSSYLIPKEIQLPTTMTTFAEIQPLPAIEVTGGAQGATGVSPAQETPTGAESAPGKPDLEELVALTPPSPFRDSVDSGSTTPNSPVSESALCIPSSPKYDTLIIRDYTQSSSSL", "assay": "Single-cell calcium imaging (Fura-2) of quisqualate-evoked calcium oscillations, with photoisomerization by 390/490 nm light", "format": "cell-based", "settings": "3 µM quisqualate", "method": "Cell Culture and Transient Transfection: Human embryonic kidney (HEK) tsA201 cells were maintained at 37 °C and humidified atmosphere with 5% CO2; cells were grown in Dulbecco's Modified Eagle's Medium/Nutrient Mixture F-12 Ham (DMEM/F12, 1:1) medium, supplemented with 10% Fetal Bovine Serum (FBS) and antibiotics (1% Penicillin/Streptomycin). Once at confluence, culture flasks were washed twice with PBS and harvested with 300 µl Accutase. Expression of rat mGlu5a was induced by transient transfection of the cDNA-containing plasmid with X-tremeGENE 9 DNA Transfection Reagent. For transfection, cells were seeded at a concentration of 10^6 cells per well on 6-multiwell plates with a final volume of 2ml, and immediately transfected following manufacturer's instructions (100 µl mixture of 3:1 (µl:µg) of X-tremeGENE 9 DNA TR:mGlu5a plasmid in serum-free medium, 20 minutes incubation). About 24h after transfection, HEK tsA201 cells transiently overexpressing mGlu5a were seeded onto 15 mm glass coverslips pre-treated with Poly-L-Lysine to allow cell adhesion. Seeding concentration was maintained between 2/4·10^5 cells to get preconfluent cultures at the time of experiment. Transfected cells were used for single-cell calcium imaging experiments between 48 and 72 hours after transfection.\nSingle-cell Calcium Imaging: At the time of experiments, glass coverslips were mounted onto the recording chamber, and cells were loaded with the high affinity, ratiometric, intracellular calcium indicator Fura-2 AM; the dye was incubated during 30 minutes at 37°C and 5% CO2, at a final concentration of 10 µM in Ca^2+-free extracellular solution (ES, -Ca^2+). We used a ratiometric calcium sensor in order to avoid bleaching artefacts. Cells were then carefully rinsed with fresh ES, three to four times, before the recording chamber was placed on an inverted fully-motorised digital microscope (iMic 2000, Till Photonics, Gräfelfing, Germany). Images were acquired at room temperature with a UV Apochromat 40x oil objective lens (Olympus, Tokio, Japan). Fura-2 AM was excited consecutively for 10 ms at two different wavelengths (340 and 380 nm) as indicated by the manufacturer (Life Technologies, Paisley, UK) by using a Polychrome V light source (Till Photonics) and a 505 nm dichroic beamsplitter (Chroma Technology, Below Falls, VT, USA); emission at 510 nm was filtered by a D535/40nm emission filter (Chroma Technology) and finally collected by a cooled CCD camera (Interline Transfer IMAGO QE, Till Photonics). The fluorescence measurements (excitation + emission recording) were carried out every 2 seconds, and each measurement takes about 10-50 ms. The 340 and 380 nm images were stored by the TILLvisION imaging software (Till Photonics); the ratio of the emission when the sample was excited at 340 nm and the emission when it was excited at 380 nm was recorded and its mean value was calculated for each cell using the same software. Higher ratios correspond to higher intracellular calcium concentrations.\nAgonists and allosteric modulators addition was obtained by carefully pipetting an initial 1:30 dilution of the compound directly into the accessory pool of the recording chamber, obtaining a final dilution of 1:1000 (total DMSO concentration was always lower than 1%). Activation of the agonist was induced in HEK tsA201 mGlu5a transfected cells with the glutamate analogue Quisqualic acid (3 µM). Only evoked, sustained intracellular calcium oscillations were taken into account as consistent cell responses to the application of the agonist; different responses (such as single-peak, peak-and-plateau, etc.), as well as spontaneously oscillating cells, were discarded as unsuitable for calculating the oscillatory frequency.\nSolutions and Reagents: The extracellular solution (ES) used for single-cell calcium imaging contained: 140 mM NaCl, 5.4 mM KCI, 1 mM MgCl2, 10 mM HEPES, 10 mM glucose and 2 mM CaCl2 adjusted to pH 7.4 with NaOH. […]"}, "[2]": {"assay": "UV-VIS absorption spectrum before and after irradiation", "format": "physicochemical", "settings": "solution in DMSO, irradiation with ultraviolet light (380 nm)"}, "[3]": {"assay": "Lipophilicity and solubility observed on handling (data not shown)", "format": "physicochemical", "text": "SIB-1757 (48) (Sigma Aldrich) is a moderate-affinity non-competitive antagonist of mGlu5 [J. Pharmacol. Exp. Thr., 1999, 290, 170-181]. […] However, we tested the molecule on a cell line heterogously expressing mGlu5, to ensure that the biological effect of SIB-1757 (48) on the target receptor is not light dependent. […] Moreover, we observed a high lipophilicity of the molecule, and also a low solubility, which make SIB-1757 (48) quite uneasy to handle for biological applications (not shown)."}}}
{"smiles": "Cc1ccc(O)c(/N=N/c2ccccc2)n1", "note": "[SIB-1757]", "values": [{"measurement": "effect on mGlu5 response (calcium oscillations)", "setting": "[1]; HEK tsA201 cells", "result": "clearly an antagonist of mGlu5"}, {"measurement": "light dependence of the activity on mGlu5", "setting": "[1]; UV (380/390 nm) and visible (500/490 nm) light", "result": "not light-dependent"}, {"measurement": "photoswitch in the UV-VIS absorption spectrum", "setting": "[2]", "result": "did not reveal any photoswitch"}, {"measurement": "lipophilicity", "setting": "[3]", "result": "high"}, {"measurement": "solubility", "setting": "[3]", "result": "low"}]}
